Measured values taken from patent publication US11725036B2, “Modified lipidated relaxin B chain peptides and their therapeutic use” (Sanofi, priority 2018, dated 2023).
Starred links: 1 amine or outer side, 2 acyl side, 3 side chain; linkers in the order of their positions; H or OH if unused. Non-standard residues stand in square brackets, D forms with d. Residues, ends and D or L forms follow the SMILES beside them. Groups on a side chain read outwards from the residue. *: point of attachment. X5 = CCCCCCCCCCCCCCCC(=O)N[C@@H](CCC(=O)N[C@@H](CCC(=O)N[C@@H](CCC(=O)NCCCOCCOCCOCCCNC(=O)CCC(=O)NCCCOCCOCCOCCCNC(=O)CCC(=O)NCCCOCCOCCOCCCNC(=O)CCC(=O)NCCCOCCOCCOCCCN*)C(=O)O)C(=O)O)C(=O)O; X1 = CCCCCCCCCCCCCCCC(=O)N[C@@H](CCC(=O)N[C@@H](CCC(=O)N[C@@H](CCC(=O)NCCCOCCOCCOCCCNC(=O)CCC(=O)NCCCOCCOCCOCCCNC(=O)CCC(=O)NCCCOCCOCCOCCCN*)C(=O)O)C(=O)O)C(=O)O; Trp(5-Cl) = N[C@@H](Cc1c[nH]c2ccc(Cl)cc12)C(=O)O; Suc = O=C(CCC(=O)[*:2])[*:1]; αMeK = C[C@](N)(CCCCN)C(=O)O; Aib = CC(C)(N)C(=O)O

Molecular target: T1, RXFP1 (Homo sapiens, UniProt Q9HBX9)
T1 construct: OVCAR5 cells expressing endogenous RXFP1; endogenous in cells; host or cells: OVCAR5
T1 sequence (Q9HBX9 1-757): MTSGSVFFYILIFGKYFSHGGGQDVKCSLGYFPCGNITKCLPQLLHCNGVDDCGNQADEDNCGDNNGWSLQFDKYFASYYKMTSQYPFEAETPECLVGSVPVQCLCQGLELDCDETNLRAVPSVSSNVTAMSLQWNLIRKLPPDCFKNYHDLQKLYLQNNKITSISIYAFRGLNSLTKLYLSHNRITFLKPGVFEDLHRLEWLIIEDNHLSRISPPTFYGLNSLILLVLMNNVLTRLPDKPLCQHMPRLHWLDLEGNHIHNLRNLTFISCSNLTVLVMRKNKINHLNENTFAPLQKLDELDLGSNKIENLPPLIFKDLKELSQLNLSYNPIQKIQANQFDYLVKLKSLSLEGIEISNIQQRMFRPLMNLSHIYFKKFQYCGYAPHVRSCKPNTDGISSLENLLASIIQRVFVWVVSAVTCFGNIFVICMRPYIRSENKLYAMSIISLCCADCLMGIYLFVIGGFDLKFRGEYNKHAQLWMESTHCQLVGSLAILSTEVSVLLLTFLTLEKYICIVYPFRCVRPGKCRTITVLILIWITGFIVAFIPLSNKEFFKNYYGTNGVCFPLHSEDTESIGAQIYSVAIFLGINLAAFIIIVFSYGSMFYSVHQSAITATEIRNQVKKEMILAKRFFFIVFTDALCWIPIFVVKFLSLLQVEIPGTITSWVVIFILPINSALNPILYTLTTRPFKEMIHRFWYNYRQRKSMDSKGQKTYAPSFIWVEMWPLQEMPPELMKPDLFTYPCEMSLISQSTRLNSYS
Experiment: OVCAR5 cAMP assay (HTRF)
Assay type: cell-based
Settings: for EC50: OVCAR 5 cells expressing endogenous RXFP1, cAMP readout; for Emax: OVCAR 5 cells, maximal cAMP relative to H2-relaxin
Outline: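 Peptide agonism measured as intracellular cAMP (HTRF) after 30 min at 37° C in serum-free medium, following 40 min 1 mM IBMX preincubation of OVCAR5 cells. Nonlinear regression gave EC50; Emax % = 100 × compound maximal cAMP / H2-relaxin maximal cAMP.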

| EC50 | Emax | Compound |
| --- | --- | --- |
| 0.2 nM | 95% | CCCCCCCCCCCCCCCC(=O)N[C@@H](CCC(=O)N[C@@H](CCC(=O)N[C@@H](CCC(=O)NCCCOCCOCCOCCCNC(=O)CCC(=O)NCCCOCCOCCOCCCNC(=O)CCC(=O)NCCCOCCOCCOCCCNC(=O)CCC(=O)NCCCC[C@H](NC(=O)CNC(=O)[C@H](CCC(=O)O)NC(=O)C(C)(C)NC(=O)C(C)(C)NC(=O)[C@@H](NC(=O)[C@H](CCCCNC(C)=O)NC(=O)[C@H](C)NC(=O)[C@H](CCCNC(=N)N)NC(=O)[C@@H](NC(=O)[C@H](CCCCN)NC(=O)[C@H](CCC(=O)O)NC(=O)[C@H](CCCNC(=N)N)NC(=O)CNC(=O)[C@H](CCC(=O)O)NC(=O)[C@H](CC(C)C)NC(C)=O)C(C)C)[C@@H](C)CC)C(=O)N[C@@H](CO)C(=O)N[C@@H](CCCCN)C(=O)N[C@@H](Cc1c[nH]c2ccccc12)C(=O)N[C@@H](CO)C(=O)NC(C)(C)C(=O)N[C@@H](CCCNC(=N)N)C(=O)N[C@@H](C)C(=O)N[C@@H](CCCCN)C(N)=O)C(=O)O)C(=O)O)C(=O)O [compound 73] (Ac-LEGREKVRAK(Ac)I[Aib][Aib]EGK([Suc-X1])SKWS[Aib]RAK-NH2) |
| 0.18 nM | 96% | CCCCCCCCCCCCCCCC(=O)N[C@@H](CCC(=O)N[C@@H](CCC(=O)N[C@@H](CCC(=O)NCCCOCCOCCOCCCNC(=O)CCC(=O)NCCCOCCOCCOCCCNC(=O)CCC(=O)NCCCOCCOCCOCCCNC(=O)CCC(=O)NCCCC[C@H](NC(=O)CNC(=O)[C@H](CCC(=O)O)NC(=O)C(C)(C)NC(=O)C(C)(C)NC(=O)[C@@H](NC(=O)[C@H](CCCCNC(C)=O)NC(=O)[C@H](C)NC(=O)[C@H](CCCNC(=N)N)NC(=O)[C@@H](NC(=O)[C@H](CCCNC(=N)N)NC(=O)[C@H](CCC(=O)O)NC(=O)[C@H](CCCNC(=N)N)NC(=O)CNC(=O)[C@H](CCC(=O)O)NC(=O)[C@H](CC(C)C)NC(C)=O)C(C)C)[C@@H](C)CC)C(=O)N[C@@H](CO)C(=O)N[C@H](C(=O)N[C@@H](Cc1ccccc1)C(=O)N[C@@H](CO)C(=O)NC(C)(C)C(=O)N[C@@H](CCCNC(=N)N)C(=O)N[C@@H](CCCNC(=N)N)C(=O)N[C@@H](CCCCNC(C)=O)C(N)=O)[C@@H](C)O)C(=O)O)C(=O)O)C(=O)O [compound 76] (Ac-LEGRERVRAK(Ac)I[Aib][Aib]EGK([Suc-X1])STFS[Aib]RRK(Ac)-NH2) |
| 0.11 nM | 98% | CCCCCCCCCCCCCCCC(=O)N[C@@H](CCC(=O)N[C@@H](CCC(=O)N[C@@H](CCC(=O)NCCCOCCOCCOCCCNC(=O)CCC(=O)NCCCOCCOCCOCCCNC(=O)CCC(=O)NCCCOCCOCCOCCCNC(=O)CCC(=O)NCCCOCCOCCOCCCNC(=O)CCC(=O)NCCCC[C@H](NC(=O)CNC(=O)[C@H](CCC(=O)O)NC(=O)C(C)(C)NC(=O)C(C)(C)NC(=O)[C@@H](NC(=O)[C@H](CCCCNC(C)=O)NC(=O)[C@H](C)NC(=O)[C@H](CCCNC(=N)N)NC(=O)[C@@H](NC(=O)[C@H](CCCNC(=N)N)NC(=O)[C@H](CCC(=O)O)NC(=O)[C@H](CCCNC(=N)N)NC(=O)CNC(=O)[C@H](CCC(=O)O)NC(=O)[C@H](CC(C)C)NC(C)=O)C(C)C)[C@@H](C)CC)C(=O)N[C@@H](CO)C(=O)N[C@H](C(=O)N[C@@H](Cc1ccccc1)C(=O)N[C@@H](CO)C(=O)NC(C)(C)C(=O)N[C@@H](CCCNC(=N)N)C(=O)N[C@@H](CCCNC(=N)N)C(=O)N[C@@H](CCCCNC(C)=O)C(N)=O)[C@@H](C)O)C(=O)O)C(=O)O)C(=O)O [compound 77] (Ac-LEGRERVRAK(Ac)I[Aib][Aib]EGK([Suc-X5])STFS[Aib]RRK(Ac)-NH2) |
| 0.18 nM | 99% | CCCCCCCCCCCCCCCC(=O)N[C@@H](CCC(=O)N[C@@H](CCC(=O)N[C@@H](CCC(=O)NCCCOCCOCCOCCCNC(=O)CCC(=O)NCCCOCCOCCOCCCNC(=O)CCC(=O)NCCCOCCOCCOCCCNC(=O)CCC(=O)NCCCOCCOCCOCCCNC(=O)CCC(=O)NCCCC[C@H](NC(=O)CNC(=O)[C@H](CCC(=O)O)NC(=O)C(C)(C)NC(=O)C(C)(C)NC(=O)[C@@H](NC(=O)[C@H](CCCCNC(C)=O)NC(=O)[C@H](C)NC(=O)[C@H](CCCNC(=N)N)NC(=O)[C@@H](NC(=O)[C@H](CCCCN)NC(=O)[C@H](CCC(=O)O)NC(=O)[C@H](CCCNC(=N)N)NC(=O)CNC(=O)[C@H](CCC(=O)O)NC(=O)[C@H](CC(C)C)NC(C)=O)C(C)C)[C@@H](C)CC)C(=O)N[C@@H](CO)C(=O)N[C@H](C(=O)N[C@@H](Cc1ccccc1)C(=O)N[C@@H](CO)C(=O)N[C@@](C)(CCCCN)C(=O)N[C@@H](CCCNC(=N)N)C(=O)N[C@@H](C)C(=O)N[C@@H](CCCCNC(C)=O)C(N)=O)[C@@H](C)O)C(=O)O)C(=O)O)C(=O)O [compound 78] (Ac-LEGREKVRAK(Ac)I[Aib][Aib]EGK([Suc-X5])STFS[αMeK]RAK(Ac)-NH2) |
| 0.45 nM | 95% | CCCCCCCCCCCCCCCC(=O)N[C@@H](CCC(=O)N[C@@H](CCC(=O)N[C@@H](CCC(=O)NCCCOCCOCCOCCCNC(=O)CCC(=O)NCCCOCCOCCOCCCNC(=O)CCC(=O)NCCCOCCOCCOCCCNC(=O)CCC(=O)NCCCC[C@H](NC(=O)CNC(=O)[C@H](CCC(=O)O)NC(=O)C(C)(C)NC(=O)C(C)(C)NC(=O)[C@@H](NC(=O)[C@H](CCCCNC(C)=O)NC(=O)[C@H](C)NC(=O)[C@H](CCCNC(=N)N)NC(=O)[C@@H](NC(=O)[C@H](CCCCN)NC(=O)[C@H](CCC(=O)O)NC(=O)[C@H](CCCNC(=N)N)NC(=O)CNC(=O)[C@H](CCC(=O)O)NC(=O)[C@H](CC(C)C)NC(C)=O)C(C)C)[C@@H](C)CC)C(=O)N[C@@H](CO)C(=O)N[C@@H](CCCCN)C(=O)N[C@@H](Cc1ccccc1)C(=O)N[C@@H](CO)C(=O)NC(C)(C)C(=O)N[C@@H](CCCNC(=N)N)C(=O)N[C@@H](CCCCN)C(=O)N[C@@H](CCCCNC(C)=O)C(N)=O)C(=O)O)C(=O)O)C(=O)O [compound 79] (Ac-LEGREKVRAK(Ac)I[Aib][Aib]EGK([Suc-X1])SKFS[Aib]RKK(Ac)-NH2) |
| 0.63 nM | 93% | CCCCCCCCCCCCCCCC(=O)N[C@@H](CCC(=O)N[C@@H](CCC(=O)N[C@@H](CCC(=O)NCCCOCCOCCOCCCNC(=O)CCC(=O)NCCCOCCOCCOCCCNC(=O)CCC(=O)NCCCOCCOCCOCCCNC(=O)CCC(=O)NCCCC[C@H](NC(=O)CNC(=O)[C@H](CCC(=O)O)NC(=O)C(C)(C)NC(=O)C(C)(C)NC(=O)[C@@H](NC(=O)[C@H](CCCCNC(C)=O)NC(=O)[C@H](C)NC(=O)[C@H](CCCNC(=N)N)NC(=O)[C@@H](NC(=O)[C@H](CCCNC(=N)N)NC(=O)[C@H](CCC(=O)O)NC(=O)[C@H](CCCNC(=N)N)NC(=O)CNC(=O)[C@H](CCC(=O)O)NC(=O)[C@H](CC(C)C)NC(C)=O)C(C)C)[C@@H](C)CC)C(=O)N[C@@H](CO)C(=O)N[C@H](C(=O)N[C@@H](Cc1c[nH]c2ccc(Cl)cc12)C(=O)N[C@@H](CO)C(=O)NC(C)(C)C(=O)N[C@@H](CCCNC(=N)N)C(=O)N[C@@H](CCCNC(=N)N)C(=O)N[C@@H](CCCCNC(C)=O)C(N)=O)[C@@H](C)O)C(=O)O)C(=O)O)C(=O)O [compound 80] (Ac-LEGRERVRAK(Ac)I[Aib][Aib]EGK([Suc-X1])ST[Trp(5-Cl)]S[Aib]RRK(Ac)-NH2) |
| 0.16 nM | 98% | CCCCCCCCCCCCCCCC(=O)N[C@@H](CCC(=O)N[C@@H](CCC(=O)N[C@@H](CCC(=O)NCCCOCCOCCOCCCNC(=O)CCC(=O)NCCCOCCOCCOCCCNC(=O)CCC(=O)NCCCOCCOCCOCCCNC(=O)CCC(=O)NCCCC[C@H](NC(=O)CNC(=O)[C@H](CCC(=O)O)NC(=O)C(C)(C)NC(=O)C(C)(C)NC(=O)[C@@H](NC(=O)[C@H](CCCCNC(C)=O)NC(=O)[C@H](C)NC(=O)[C@H](CCCNC(=N)N)NC(=O)[C@@H](NC(=O)[C@H](CCCCN)NC(=O)[C@H](CCC(=O)O)NC(=O)[C@H](CCCNC(=N)N)NC(=O)CNC(=O)[C@H](CCC(=O)O)NC(=O)[C@H](CCCCNC(C)=O)NC(C)=O)C(C)C)[C@@H](C)CC)C(=O)N[C@@H](CO)C(=O)N[C@H](C(=O)N[C@@H](Cc1ccccc1)C(=O)N[C@@H](CO)C(=O)N[C@@](C)(CCCCN)C(=O)N[C@@H](CCCNC(=N)N)C(=O)N[C@@H](C)C(=O)N[C@@H](CCCCNC(C)=O)C(N)=O)[C@@H](C)O)C(=O)O)C(=O)O)C(=O)O [compound 81] (Ac-K(Ac)EGREKVRAK(Ac)I[Aib][Aib]EGK([Suc-X1])STFS[αMeK]RAK(Ac)-NH2) |
